Measured values taken from US7482379B2, “Propenoyl hydrazides” (priority 2004, dated 2009).

Assays:
[1] = target: T1, Caspase-9 (Homo sapiens, UniProt P55211); assay: Caspase-9 progress curve inhibition assay; details: second-order rate constant; Ac-LEHD-AFC substrate; Hepes buffer pH 7.0 with 0.7 M sodium citrate
T1 sequence (P55211 1-315 limits assumed): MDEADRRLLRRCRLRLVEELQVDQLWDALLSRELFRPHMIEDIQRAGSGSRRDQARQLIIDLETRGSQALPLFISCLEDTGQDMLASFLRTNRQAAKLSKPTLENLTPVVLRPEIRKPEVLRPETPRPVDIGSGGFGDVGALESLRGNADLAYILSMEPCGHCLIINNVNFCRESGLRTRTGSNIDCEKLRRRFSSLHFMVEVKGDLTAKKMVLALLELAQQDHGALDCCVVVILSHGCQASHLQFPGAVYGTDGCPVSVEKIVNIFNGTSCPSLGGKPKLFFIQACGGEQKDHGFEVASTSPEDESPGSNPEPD
T1 sequence (P55211 331-416 limits assumed): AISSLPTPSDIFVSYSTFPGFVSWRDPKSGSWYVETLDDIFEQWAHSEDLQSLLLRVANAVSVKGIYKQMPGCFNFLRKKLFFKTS

[2] = target: T2, Caspase-3 (Homo sapiens, UniProt P42574); assay: Caspase-3 progress curve inhibition assay; details: second-order rate constant; Ac-DEVD-AMC substrate; Pipes buffer pH 7.2
T2 sequence (P42574 29-175 limits assumed): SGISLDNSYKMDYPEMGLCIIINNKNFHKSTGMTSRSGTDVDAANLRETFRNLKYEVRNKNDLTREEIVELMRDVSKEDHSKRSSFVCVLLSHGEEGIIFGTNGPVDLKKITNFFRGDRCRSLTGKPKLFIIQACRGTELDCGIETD
T2 sequence (P42574 176-277 limits assumed): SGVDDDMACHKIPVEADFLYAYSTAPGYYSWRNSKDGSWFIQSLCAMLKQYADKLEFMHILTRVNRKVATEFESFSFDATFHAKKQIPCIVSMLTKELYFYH
Experimental: Caspase-2, -3, -6, -7, -8, -9 and -10. […] Inhibition rates were determined by the progress curve method known in the art. This method is suitable for measuring irreversible inhibition rates with fast inhibitors, where the inhibitor, the substrate and the enzyme are incubated together and the rate of substrate hydrolysis is measured continuously. The rate of substrate hydrolysis in the presence of the inhibitor was monitored for 20 minutes. The progress curve of inhibition, where the product formation approaches an asymptote is described in the equation ln([P∞]−[P])=ln[P∞]−A[I]t where [P] and [P∞] are the product concentrations at t and t=∞ respectively, A is the apparent rate constant in the presence of the substrate. The apparent rate constants were determined from the slopes of plots of ln ([P∞]−[P]) versus time (t) in seconds as previously described, where A=slope/[I].
(§1) For competitive and irreversible inhibition, the apparent rate constant is converted to the second order rate constant k2 by taking into consideration the effect of the substrate concentration on the apparent rate constant. The second order rate constant is described as in the equation: k2=A*(1+[S]/KM)
(§2) The concentration of the caspase-3 stock solution was 2 nM in the assay buffer. Assay buffer is a 1:1 mixture of caspase buffer (40 mM Pipes, 200 mM NaCl, 0.2% (w/v) CHAPS, sucrose 20% (w/v)) and 20 mM DTT solution in H2O at pH 7.2. The concentration of the substrate stock solution was 2 mM in DMSO. The enzyme was pre-activated for 10 min at 37° C. in the assay buffer. […] 50 μL of 2 nM enzyme stock solution (final concentration: 1 nM) was added to the mixture after 1 min and reading started immediately for 20 min at 37° C. Inhibition experiments were repeated in duplicate and standard deviations determined.

[3] = target: Caspase-8 (Homo sapiens, UniProt Q14790); assay: Caspase-8 progress curve inhibition assay; details: second-order rate constant; Ac-DEVD-AMC substrate; Pipes buffer pH 7.2
[4] = target: T3, Caspase-10 (Homo sapiens, UniProt Q92851); assay: Caspase-10 progress curve inhibition assay; details: second-order rate constant; Ac-DEVD-AMC substrate; Hepes/PEG buffer pH 7.0
T3 sequence (Q92851 220-415 limits assumed): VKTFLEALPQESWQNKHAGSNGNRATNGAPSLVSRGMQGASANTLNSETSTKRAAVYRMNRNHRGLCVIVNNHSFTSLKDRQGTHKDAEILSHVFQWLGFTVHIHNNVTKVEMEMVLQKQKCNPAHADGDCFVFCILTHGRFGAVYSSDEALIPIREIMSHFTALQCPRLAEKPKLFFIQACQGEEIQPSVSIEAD
T3 sequence (Q92851 416-521 limits assumed): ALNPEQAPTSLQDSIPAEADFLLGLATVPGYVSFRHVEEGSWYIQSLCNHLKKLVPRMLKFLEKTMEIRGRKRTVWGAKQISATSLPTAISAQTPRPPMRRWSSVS

[5] = target: T4, Caspase-6 (Homo sapiens, UniProt P55212); assay: Caspase-6 progress curve inhibition assay; details: second-order rate constant; Ac-DEVD-AMC substrate; Pipes buffer pH 7.2
T4 sequence (P55212 24-179 limits assumed): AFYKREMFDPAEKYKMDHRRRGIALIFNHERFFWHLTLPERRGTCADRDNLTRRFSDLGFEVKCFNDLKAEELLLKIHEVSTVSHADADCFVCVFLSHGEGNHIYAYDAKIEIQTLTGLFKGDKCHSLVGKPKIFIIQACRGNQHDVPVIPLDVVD
T4 sequence (P55212 194-293 limits assumed): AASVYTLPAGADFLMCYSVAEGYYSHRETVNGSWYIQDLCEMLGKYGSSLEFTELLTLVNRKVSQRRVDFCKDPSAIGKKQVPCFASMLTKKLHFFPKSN

[6] = target: T5, Caspase-2 (Homo sapiens, UniProt P42575); assay: Caspase-2 progress curve inhibition assay; details: second-order rate constant; Cbz-VDVAD-AFC substrate; Pipes buffer pH 7.2
T5 sequence (P42575 170-333 limits assumed): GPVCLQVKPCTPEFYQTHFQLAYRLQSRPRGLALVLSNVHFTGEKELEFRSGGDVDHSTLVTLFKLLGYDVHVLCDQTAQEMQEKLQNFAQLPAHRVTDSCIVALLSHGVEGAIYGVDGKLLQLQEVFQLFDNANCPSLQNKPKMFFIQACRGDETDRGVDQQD
T5 sequence (P42575 348-452 limits assumed): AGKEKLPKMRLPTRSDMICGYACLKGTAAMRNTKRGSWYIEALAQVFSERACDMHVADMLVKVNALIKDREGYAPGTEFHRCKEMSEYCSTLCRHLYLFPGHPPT
Experimental: Inhibition rates were determined by the progress curve method known in the art. This method is suitable for measuring irreversible inhibition rates with fast inhibitors, where the inhibitor, the substrate and the enzyme are incubated together and the rate of substrate hydrolysis is measured continuously. The rate of substrate hydrolysis in the presence of the inhibitor was monitored for 20 minutes. The progress curve of inhibition, where the product formation approaches an asymptote is described in the equation ln([P∞]−[P])=ln[P∞]−A[I]t where [P] and [P∞] are the product concentrations at t and t=∞ respectively, A is the apparent rate constant in the presence of the substrate. The apparent rate constants were determined from the slopes of plots of ln ([P∞]−[P]) versus time (t) in seconds as previously described, where A=slope/[I].
as §1, §2
The inhibitor stock solution concentrations varied from 5×10^−3 M to 1×10^−4 M in DMSO.

[7] = target: T6, Caspase-7 (Homo sapiens, UniProt P55210); assay: Caspase-7 progress curve inhibition assay; details: second-order rate constant; Ac-DEVD-AMC substrate; Pipes buffer pH 7.2
T6 sequence (P55210 24-198 limits assumed): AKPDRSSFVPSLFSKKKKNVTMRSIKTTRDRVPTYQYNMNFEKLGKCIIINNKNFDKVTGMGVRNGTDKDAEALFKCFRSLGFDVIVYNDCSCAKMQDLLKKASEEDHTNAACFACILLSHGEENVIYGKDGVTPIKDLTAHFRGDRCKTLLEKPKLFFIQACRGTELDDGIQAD
T6 sequence (P55210 207-303 limits assumed): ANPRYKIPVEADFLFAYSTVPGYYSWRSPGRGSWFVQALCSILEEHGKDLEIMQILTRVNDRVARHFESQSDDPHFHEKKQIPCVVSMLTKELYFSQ

Caspase-8, sequence (Q14790 217-374 limits assumed): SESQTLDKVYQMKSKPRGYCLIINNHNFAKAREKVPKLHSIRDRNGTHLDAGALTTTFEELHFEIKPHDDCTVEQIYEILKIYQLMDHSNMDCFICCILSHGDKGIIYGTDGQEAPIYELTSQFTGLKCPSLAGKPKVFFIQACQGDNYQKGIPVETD
Caspase-8, sequence (Q14790 385-479 limits assumed): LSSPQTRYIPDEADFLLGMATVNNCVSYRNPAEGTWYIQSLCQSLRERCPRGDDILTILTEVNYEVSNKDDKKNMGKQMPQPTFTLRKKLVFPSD

SMILES	k2 Caspase-9 [1]	k2 Caspase-3 [2]	k2 Caspase-8 [3]	k2 Caspase-10 [4]	k2 Caspase-6 [5]	k2 Caspase-2 [6]	k2 Caspase-7 [7]
CC(C)[C@H](NC(=O)[C@H](CCC(=O)O)NC(=O)[C@H](CC(=O)O)NC(=O)OCc1ccccc1)C(=O)NN(CC(=O)O)C(=O)/C=C/C(=O)NCCc1ccccc1 (relative stereo) [Cbz-Asp-Glu-Val-AAsp-CH═CH—CONHCH2CH2Ph, N^2—(N-Benzyloxycarbonylaspartylglutamylvalyl)-N^1-carboxymethyl-N^1-trans-(3-phenethylcarbamoylpropenoyl)hydrazine]	655 M⁻¹ s⁻¹	1,950,000 M^−1s^−1	129,000 M^−1s^−1	31,400 M^−1s^−1	3,470 M^−1s^−1	120 M⁻¹ s⁻¹	267,000 M^−1s^−1
CC(C)[C@H](NC(=O)[C@H](CCC(=O)O)NC(=O)[C@H](CC(=O)O)NC(=O)OCc1ccccc1)C(=O)NN(CC(=O)O)C(=O)/C=C/C(=O)NCc1ccccc1 (relative stereo) [Cbz-Asp-Glu-Val-AAsp-CH═CH—CONHCH2Ph, N^1-trans-(3-Benzylcarbamoylpropenoyl)-N^2—(N-benzyloxycarbonylaspartylglutamylvalyl)-N^1-carboxymethylhydrazine]	2,010 M^−1s^−1	1,750,000 M^−1s^−1	78,235 M^−1s^−1	19,400 M^−1s^−1	3,210 M^−1s^−1	130 M⁻¹ s⁻¹	249,000 M^−1s^−1
CC[C@H](C)[C@H](NC(=O)OCc1ccccc1)C(=O)N[C@@H](CCC(=O)O)C(=O)N[C@H](C(=O)NN(CC(=O)O)C(=O)/C=C/C(=O)N(Cc1ccccc1)Cc1ccccc1)[C@@H](C)O (relative stereo) [Cbz-Ile-Glu-Thr-AAsp-CH═CH—CON(CH2Ph)2, N^2—(N-Benzyloxycarbonylisoleucylglutamylthreonyl)-N^1-carboxylmethyl-N^1-trans-(3-dibenzylcarbamoylpropenoyl)hydrazine]	1,930 M^−1s^−1	9,570 M^−1s^−1	39,500 M^−1s^−1	7,930 M^−1s^−1	83,900 M^−1s^−1	76 M⁻¹ s⁻¹	1,140 M^−1s^−1
CC[C@H](C)[C@H](NC(=O)OCc1ccccc1)C(=O)N[C@@H](CCC(=O)O)C(=O)N[C@H](C(=O)NN(CC(=O)O)C(=O)/C=C/C(=O)N(C)Cc1ccccc1)[C@@H](C)O (relative stereo) [Cbz-Ile-Glu-Thr-AAsp-CH═CH—CON(CH3)CH2Ph, N^1-trans-(3-Benzylmethylcarbamoylpropenoyl)-N^2—(N-benzyloxycarbonylisoleucylglutamylthreonyl)-N^1-carboxylmethylhydrazine]	845 M⁻¹ s⁻¹	6,000 M^−1s^−1	59,700 M^−1s^−1	8,500 M^−1s^−1	45,900 M^−1s^−1	95 M⁻¹ s⁻¹	390 M⁻¹ s⁻¹
CC[C@H](C)[C@H](NC(=O)OCc1ccccc1)C(=O)N[C@@H](CCC(=O)O)C(=O)N[C@H](C(=O)NN(CC(=O)O)C(=O)/C=C/C(=O)NCCc1ccccc1)[C@@H](C)O (relative stereo) [Cbz-Ile-Glu-Thr-AAsp-CH═CH—CONHCH2CH2Ph, N^2—(N-BenzyloxycarbonylisoleucylglutamyIthreonyl)-N^1-carboxylmethyl-N^1-trans-(3-phenyethylcarbamoylpropenoyl)hydrazine]	615 M⁻¹ s⁻¹	4,750 M^−1s^−1	71,000 M^−1s^−1	8,290 M^−1s^−1	18,700 M^−1s^−1	30 M⁻¹ s⁻¹	440 M⁻¹ s⁻¹
CC[C@H](C)[C@H](NC(=O)OCc1ccccc1)C(=O)N[C@@H](CCC(=O)O)C(=O)N[C@H](C(=O)NN(CC(=O)O)C(=O)/C=C/C(=O)NCc1ccccc1)[C@@H](C)O (relative stereo) [Cbz-Ile-Glu-Thr-AAsp-CH═CH—CONHCH2Ph, N^1-trans-(3-Benzylcarbamoylpropenoyl)-N^2—(N-benzyloxycarbonylisoleucylglutamylthreonyl)-N^1-carboxylmethylhydrazine]	440 M⁻¹ s⁻¹	2,250 M^−1s^−1	61,300 M^−1s^−1	503 M⁻¹ s⁻¹	16,800 M^−1s^−1	15 M⁻¹ s⁻¹	100 M⁻¹ s⁻¹
CC[C@H](C)[C@H](NC(=O)OCc1ccccc1)C(=O)N[C@@H](CCC(=O)O)C(=O)N[C@H](C(=O)NN(CC(=O)O)C(=O)/C=C/C(=O)Nc1ccccc1)[C@@H](C)O (relative stereo) [Cbz-Ile-Glu-Thr-AAsp-CH═CH—CONHPh, N^2—(N-Benzyloxycarbonylisoleucylglutamylthreonyl)-N^1-carboxylmethyl-N^1-trans-(3-phenylcarbamoylpropenoyl)hydrazine]	940 M⁻¹ s⁻¹	7,030 M^−1s^−1	245,000 M^−1s^−1	9,210 M^−1s^−1	99,200 M^−1s^−1	365 M⁻¹ s⁻¹	920 M⁻¹ s⁻¹
CC(C)C[C@H](NC(=O)OCc1ccccc1)C(=O)N[C@@H](CCC(=O)O)C(=O)N[C@H](C(=O)NN(CC(=O)O)C(=O)/C=C/C(=O)N(Cc1ccccc1)Cc1ccccc1)[C@@H](C)O (relative stereo) [Cbz-Leu-Glu-Thr-AAsp-CH═CH—CON(CH2Ph)2, N^2—(N-Benzyloxycarbonylleucylglutamylthreonyl)-N^1-carboxylmethyl-N^1-trans-(3-dibenzylcarbamoylpropenoyl)hydrazine]	1,105 M^−1s^−1	8,630 M^−1s^−1	129,000 M^−1s^−1	8,080 M^−1s^−1	14,100 M^−1s^−1	110 M⁻¹ s⁻¹	760 M⁻¹ s⁻¹
CC(C)C[C@H](NC(=O)OCc1ccccc1)C(=O)N[C@@H](CCC(=O)O)C(=O)N[C@H](C(=O)NN(CC(=O)O)C(=O)/C=C/C(=O)N(C)Cc1ccccc1)[C@@H](C)O (relative stereo) [Cbz-Leu-Glu-Thr-AAsp-CH═CH—CON(CH3)CH2Ph, N^1-trans-(3-Benzylmethylcarbamoylpropenoyl)-N^2—(N-benzyloxycarbonylleucylglutamylthreonyl)-N^1-carboxylmethylhydrazine]	4,320 M^−1s^−1	6,000 M^−1s^−1	169,000 M^−1s^−1	8,430 M^−1s^−1	10,800 M^−1s^−1	140 M⁻¹ s⁻¹	520 M⁻¹ s⁻¹
